Data from ChEMBL document CHEMBL5352388 (Eur J Med Chem, 2022).
The source made the active and inactive calls. The rule behind the calls is not given here.

How the values were obtained:
A549 [1] = experiment: Antitumor activity against human A549 cells xenografted in BALB/c mouse assessed as appearance of pyknosis at 10 mg/kg,ip administrated for 15 days; assay type: functional, organism-based; conditions: time 15.0 day
[2] = molecular target: T1, Lysine-specific histone demethylase 1A (Homo sapiens, UniProt O60341); experiment: Reversible inhibition of LSD-1 (unknown origin) by jump dilution assay
CYP2D6 = CYP2D6 (Homo sapiens, UniProt P10635); experiment: Inhibition of CYP2D6 (unknown origin) at 10 uM incubated for 20 mins in presence of NADPH by LC/MS/MS analysis relative to control; assay type: ADME
[3] = AUC (0-t) in Sprague-Dawley rat at 10 mg/kg,po by LC-MS/MS analysis; assay type: ADME, organism-based; parameters: dose 10 mg/kg, route po; conditions: in vivo
[4] = Clearance in Sprague-Dawley rat at 3 mg/kg,iv by LC-MS/MS analysis; assay type: ADME, organism-based; conditions: in vivo
NCI-H460 = experiment: cells; conditions: Homo sapiens, NCI-H460, 72 h
Description: Antiproliferative activity against human NCI-H460 cells assessed as inhibition of cell growth incubated for 72 hrs by CCK-8 assay

[5] = Intrinsic clearance in human liver microsomes measured upto 60 mins in presence of NADPH by LC/MS/MS analysis; assay type: ADME, Microsome; conditions: read-out: CLH
[6] = Volume of distribution in steady state in Sprague-Dawley rat at 3 mg/kg,iv by LC-MS/MS analysis; assay type: ADME, organism-based; conditions: in vivo, read-out: Vdss
[7] = Cmax in Sprague-Dawley rat at 10 mg/kg,po by LC-MS/MS analysis; assay type: ADME, organism-based; parameters: dose 10 mg/kg, route po; conditions: in vivo
A549 [8] = experiment: cells; conditions: Homo sapiens, A549, 72 h
Description: Antiproliferative activity against human A549 cells assessed as inhibition of cell growth incubated for 72 hrs by CCK-8 assay

[9] = molecular target: T1, Lysine-specific histone demethylase 1A; experiment: Inhibition of LSD1 in human A549 cells assessed as increase in H3K4me2 protein level at 1 to 4 uM incubated for 72 hrs by Western blotting assay; assay type: cell-based; conditions: dose 1-4 µM
A549 [10] = experiment: Induction of apoptosis in human A549 cells assessed as upregulation of Bax at 1 to 4 uM incubated for 72 hrs by Western blotting assay; assay type: functional, cell-based; conditions: dose 1-4 µM
[11] = Oral bioavailability in Sprague-Dawley rat at 10 mg/kg by LC-MS/MS analysis; assay type: ADME, organism-based; conditions: in vivo
A549 [12] = experiment: Induction of apoptosis in human A549 cells assessed as downregulation of mTOR phosphorylation incubated for 72 hrs by Western blotting assay; assay type: functional, cell-based
[13] = molecular target: T2, Amine oxidase [flavin-containing] B (Homo sapiens, UniProt P27338)
T2 sequence (P27338 whole entry): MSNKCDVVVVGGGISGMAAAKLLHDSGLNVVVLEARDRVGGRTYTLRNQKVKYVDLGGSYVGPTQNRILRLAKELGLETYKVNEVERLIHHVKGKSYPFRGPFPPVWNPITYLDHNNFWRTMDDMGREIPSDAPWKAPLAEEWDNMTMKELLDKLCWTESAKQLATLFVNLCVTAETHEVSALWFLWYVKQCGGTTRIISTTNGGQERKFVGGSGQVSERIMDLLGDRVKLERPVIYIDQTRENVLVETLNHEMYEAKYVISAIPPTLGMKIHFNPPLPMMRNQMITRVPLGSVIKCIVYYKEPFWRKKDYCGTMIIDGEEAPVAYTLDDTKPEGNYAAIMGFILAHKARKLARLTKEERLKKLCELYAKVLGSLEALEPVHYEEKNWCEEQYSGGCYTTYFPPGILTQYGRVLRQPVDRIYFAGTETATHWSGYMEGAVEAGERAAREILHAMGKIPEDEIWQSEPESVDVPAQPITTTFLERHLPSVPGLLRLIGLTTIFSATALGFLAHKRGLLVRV
Description: Inhibition of recombinant MAO-B (unknown origin) incubated for 60 mins by luminescence based flow cytometry

[14] = AUC (0-t) in Sprague-Dawley rat at 3 mg/kg,iv by LC-MS/MS analysis; assay type: ADME, organism-based; parameters: dose 3 mg/kg, route iv; conditions: in vivo
HeLa = experiment: Antiproliferative activity against human HeLa cells assessed as inhibition of cell growth incubated for 72 hrs by CCK-8 assay; assay type: functional, cell-based
[15] = Half life in Sprague-Dawley rat at 10 mg/kg,po by LC-MS/MS analysis; assay type: ADME, organism-based; conditions: in vivo
[16] = Metabolic stability in human liver microsomes assessed as compound remaining measured upto 60 mins by LC/MS/MS analysis; assay type: ADME, Microsome; conditions: read-out: Stability
[17] = Tmax in Sprague-Dawley rat at 10 mg/kg,po by LC-MS/MS analysis; assay type: ADME, organism-based; conditions: in vivo
[18] = Intrinsic clearance in human liver measured upto 60 mins in presence of NADPH by LC/MS/MS analysis; assay type: ADME, tissue-based; conditions: read-out: CLH
MGC-803 = experiment: cells; conditions: Homo sapiens, MGC-803, 72 h
Description: Antiproliferative activity against human MGC-803 cells assessed as inhibition of cell growth incubated for 72 hrs by CCK-8 assay

CYP1A2 = molecular target: T3, CYP1A2 (Homo sapiens, UniProt P05177); experiment: Inhibition of CYP1A2 (unknown origin) at 10 uM incubated for 20 mins in presence of NADPH by LC/MS/MS analysis relative to control; assay type: ADME
T3 sequence (P05177 whole entry): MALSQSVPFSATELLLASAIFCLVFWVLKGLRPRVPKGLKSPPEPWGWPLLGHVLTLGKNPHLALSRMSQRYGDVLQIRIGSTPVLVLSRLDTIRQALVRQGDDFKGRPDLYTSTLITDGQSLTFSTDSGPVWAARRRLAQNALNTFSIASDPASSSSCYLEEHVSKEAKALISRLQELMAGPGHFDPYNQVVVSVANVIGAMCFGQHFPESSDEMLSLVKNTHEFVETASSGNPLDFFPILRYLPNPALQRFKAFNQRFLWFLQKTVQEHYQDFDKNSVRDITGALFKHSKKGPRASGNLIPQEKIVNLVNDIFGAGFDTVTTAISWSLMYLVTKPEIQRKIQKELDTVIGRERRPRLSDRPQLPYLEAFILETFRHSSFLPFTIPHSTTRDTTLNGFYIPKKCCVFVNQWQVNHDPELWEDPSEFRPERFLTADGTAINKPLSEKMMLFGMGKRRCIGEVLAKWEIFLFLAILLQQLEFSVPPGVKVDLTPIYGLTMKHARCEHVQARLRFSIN

CYP2C9 = CYP2C9 (Homo sapiens, UniProt P11712); experiment: Inhibition of CYP2C9 (unknown origin) at 10 uM incubated for 20 mins in presence of NADPH by LC/MS/MS analysis relative to control; assay type: ADME
CYP3A4 = CYP3A4 (Homo sapiens, UniProt P08684); experiment: Inhibition of CYP3A4 (unknown origin) at 10 uM incubated for 20 mins in presence of NADPH by LC/MS/MS analysis relative to control; assay type: ADME
[19] = Toxicity in BALB/c mouse xenografted with human A549 cells assessed as change in body weight at 20 mg/kg,ip administrated for 15 days; assay type: organism-based; conditions: in vivo, 360 h, time 15 day
[20] = molecular target: Voltage-gated inwardly rectifying potassium channel KCNH2 (Homo sapiens, UniProt Q12809); experiment: Inhibition of human ERG stably expressed in CHO cells by patch clamp assay; assay type: toxicity, cell-based
A549 [21] = experiment: Antiproliferative activity against human A549 cells assessed as reduction of Edu positive cells at 2 uM incubated for 48 hrs by EdU incorporation based laser scanning microscopic analysis; assay type: functional, cell-based
[22] = molecular target: T1, Lysine-specific histone demethylase 1A; experiment: Inhibition of LSD1 (unknown origin) assessed as inhibition constant using H3K4me2 as substrate by Lineweaver-Burk plot analysis

CYP3A4, sequence (P08684 whole entry): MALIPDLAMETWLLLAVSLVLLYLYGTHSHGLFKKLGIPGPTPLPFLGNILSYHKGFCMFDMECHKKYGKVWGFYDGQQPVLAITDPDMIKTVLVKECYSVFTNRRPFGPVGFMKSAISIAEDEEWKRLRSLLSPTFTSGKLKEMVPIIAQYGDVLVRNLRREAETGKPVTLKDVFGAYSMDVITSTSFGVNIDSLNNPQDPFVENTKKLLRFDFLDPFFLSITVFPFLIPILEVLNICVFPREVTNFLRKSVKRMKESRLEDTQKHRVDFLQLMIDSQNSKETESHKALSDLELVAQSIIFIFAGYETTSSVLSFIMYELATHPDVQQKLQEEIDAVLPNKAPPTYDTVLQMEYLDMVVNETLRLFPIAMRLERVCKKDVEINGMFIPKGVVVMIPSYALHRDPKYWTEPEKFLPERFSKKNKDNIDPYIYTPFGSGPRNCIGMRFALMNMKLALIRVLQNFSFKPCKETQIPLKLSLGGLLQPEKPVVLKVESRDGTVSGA
CYP2C9, sequence (P11712 whole entry): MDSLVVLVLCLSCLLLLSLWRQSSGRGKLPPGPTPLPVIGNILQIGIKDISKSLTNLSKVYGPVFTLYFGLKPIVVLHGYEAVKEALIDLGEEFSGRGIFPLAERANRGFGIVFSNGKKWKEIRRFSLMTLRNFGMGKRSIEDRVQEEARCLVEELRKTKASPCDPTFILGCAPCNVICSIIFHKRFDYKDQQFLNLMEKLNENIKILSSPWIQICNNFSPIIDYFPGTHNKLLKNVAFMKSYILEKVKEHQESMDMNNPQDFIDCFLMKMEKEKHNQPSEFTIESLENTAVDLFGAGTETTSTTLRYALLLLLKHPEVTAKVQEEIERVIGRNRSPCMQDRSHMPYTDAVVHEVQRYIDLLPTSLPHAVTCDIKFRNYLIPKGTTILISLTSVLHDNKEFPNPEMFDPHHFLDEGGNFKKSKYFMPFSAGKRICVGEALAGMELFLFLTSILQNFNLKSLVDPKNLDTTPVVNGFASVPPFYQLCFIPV
Voltage-gated inwardly rectifying potassium channel KCNH2, sequence (Q12809 whole entry): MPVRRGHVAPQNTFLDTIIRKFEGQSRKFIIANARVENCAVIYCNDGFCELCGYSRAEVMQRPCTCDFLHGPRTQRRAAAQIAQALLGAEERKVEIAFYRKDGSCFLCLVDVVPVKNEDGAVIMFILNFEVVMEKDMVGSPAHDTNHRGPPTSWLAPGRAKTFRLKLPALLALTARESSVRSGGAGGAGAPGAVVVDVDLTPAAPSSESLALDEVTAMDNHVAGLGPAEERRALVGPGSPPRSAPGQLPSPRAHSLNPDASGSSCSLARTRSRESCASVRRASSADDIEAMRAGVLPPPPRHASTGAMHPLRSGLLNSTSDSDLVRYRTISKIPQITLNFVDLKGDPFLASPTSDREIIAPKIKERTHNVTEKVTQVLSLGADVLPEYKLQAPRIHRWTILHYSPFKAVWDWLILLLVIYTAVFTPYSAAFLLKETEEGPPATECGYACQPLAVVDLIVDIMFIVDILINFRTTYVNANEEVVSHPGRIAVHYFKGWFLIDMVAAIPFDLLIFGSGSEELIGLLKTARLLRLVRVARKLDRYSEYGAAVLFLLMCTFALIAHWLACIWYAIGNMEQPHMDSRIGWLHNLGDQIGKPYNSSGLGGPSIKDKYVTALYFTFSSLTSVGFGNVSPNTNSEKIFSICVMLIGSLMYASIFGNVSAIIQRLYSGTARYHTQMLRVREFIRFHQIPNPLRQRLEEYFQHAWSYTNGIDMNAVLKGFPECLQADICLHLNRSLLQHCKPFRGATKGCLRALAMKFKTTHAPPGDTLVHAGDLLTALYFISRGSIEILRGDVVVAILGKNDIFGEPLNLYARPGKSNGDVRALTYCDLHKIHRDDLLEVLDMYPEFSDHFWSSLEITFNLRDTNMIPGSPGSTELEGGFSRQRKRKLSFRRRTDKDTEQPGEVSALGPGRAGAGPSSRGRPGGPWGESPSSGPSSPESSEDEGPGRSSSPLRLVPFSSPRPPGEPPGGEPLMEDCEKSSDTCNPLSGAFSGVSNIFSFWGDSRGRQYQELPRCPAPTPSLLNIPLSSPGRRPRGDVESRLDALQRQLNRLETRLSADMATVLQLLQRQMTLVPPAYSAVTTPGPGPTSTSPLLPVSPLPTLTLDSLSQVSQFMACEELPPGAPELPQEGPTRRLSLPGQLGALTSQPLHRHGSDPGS
CYP2D6, sequence (P10635 whole entry): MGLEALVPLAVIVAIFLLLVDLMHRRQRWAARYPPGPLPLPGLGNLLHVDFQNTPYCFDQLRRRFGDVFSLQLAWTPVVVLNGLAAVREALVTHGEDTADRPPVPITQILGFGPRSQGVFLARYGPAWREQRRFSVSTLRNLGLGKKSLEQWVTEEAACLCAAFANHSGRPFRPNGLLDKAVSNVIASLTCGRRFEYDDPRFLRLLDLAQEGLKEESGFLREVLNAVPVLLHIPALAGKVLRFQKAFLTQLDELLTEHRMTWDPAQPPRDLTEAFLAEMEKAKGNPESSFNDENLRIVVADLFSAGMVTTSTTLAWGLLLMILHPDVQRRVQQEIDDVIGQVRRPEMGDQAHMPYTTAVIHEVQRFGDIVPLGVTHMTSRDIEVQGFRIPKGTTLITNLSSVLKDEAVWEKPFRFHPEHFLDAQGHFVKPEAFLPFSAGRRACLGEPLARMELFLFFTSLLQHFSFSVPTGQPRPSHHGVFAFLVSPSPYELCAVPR

**Q.** With `Cc1ccc(-c2cc3c(cc2-c2ccc(C#N)cc2)c(C(=O)N2CCC(N)CC2)cn3S(=O)(=O)c2ccc(F)cc2)cc1` as the compound, how does the Activity (A549 [1]) read?
**A.** Active

**Q.** What about the inhibition [2] of the same compound?
**A.** Active

**Q.** And the inhibition at 20 min, 10 µM (CYP2D6)?
**A.** 2.9%

**Q.** What about the AUC(0-t) [3] of the same compound?
**A.** 329 ng·h/mL

**Q.** And the clearance [4]?
**A.** 35.5 mL/min/kg

**Q.** And the IC50 (NCI-H460)?
**A.** 3.8 µM

**Q.** What about the microsomal CLint [5] of the same compound?
**A.** 9.6 µL/min/mg

**Q.** What about the Vd [6] of the same compound?
**A.** 17.4 L/kg

**Q.** And the Cmax [7]?
**A.** 46.5 ng/mL

**Q.** And the IC50 (A549 [8])?
**A.** 0.74 µM

**Q.** And the inhibition [9]?
**A.** Dose-Dependent Effect

**Q.** And the Activity (A549 [10])?
**A.** Dose-Dependent Effect

**Q.** And the bioavailability [11]?
**A.** 7.49%

**Q.** What about the Activity (A549 [12]) of the same compound?
**A.** Active

**Q.** And the IC50 [13]?
**A.** 0.72 µM

**Q.** And the AUC(0-t) [14]?
**A.** 1320 ng·h/mL

**Q.** And the IC50 (HeLa)?
**A.** 3.3 µM

**Q.** And the half-life [15]?
**A.** 6.27 h

**Q.** What about the remaining at 1 h [16] of the same compound?
**A.** 102%

**Q.** And the Tmax [17]?
**A.** 4 h

**Q.** What about the CLint scaled [18] of the same compound?
**A.** 8.6 mL/min/kg

**Q.** What about the IC50 (MGC-803) of the same compound?
**A.** 5.8 µM

**Q.** What about the inhibition at 20 min, 10 µM (CYP1A2) of the same compound?
**A.** 0%

**Q.** And the inhibition at 20 min, 10 µM (CYP2C9)?
**A.** 47.7%

**Q.** What about the inhibition at 20 min, 10 µM (CYP3A4) of the same compound?
**A.** 56.8%

**Q.** What about the Activity [19] of the same compound?
**A.** Non-Toxic

**Q.** What about the IC50 [20] of the same compound?
**A.** 5.11 µM

**Q.** And the Activity (A549 [21])?
**A.** Active

**Q.** What about the Ki [22] of the same compound?
**A.** 0.155 µM
